Values belong to the molecule of their own block, whether it stands above or below them.
Experiments:
[1] = Body weight evolution in ovariectomized rats during 6-week local treatment; format: in vivo, rat; settings: 6-week treatment, irrespective of the dose
Text: (§1) 8-10 weeks-old female Sprague Dawley rats (Janvier, France) are first acclimated during a period of time of one week or more.
(§2) The acclimated rats undergo a bilateral ovariectomy (at “Day 0”), so as to induce an experimental menopause.
(§3) Three weeks after ovariectomy (at Day 21), the ovariectomized rats are divided in five distinct groups of at least eight animals per group, respectively: • Group 1: the ovariectomized rats receive no treatment at all • Group 2: the ovariectomized rats are administered once daily with an ovule comprising a liquid saline (placebo) • Group 3: the ovariectomized rats are administered once daily with an ovule comprising estradiol alone, in the absence of vitamin D analog • Group 4: the ovariectomized rats are administered once daily with an ovule comprising vitamin D analog alone, in the absence of estradiol. • Group 5: the ovariectomized rats are administered once daily with an ovule comprising (i) the combination of estradiol and vitamin D analog.
(§4) Each of the Groups 1, 2, 3, 4 and 5 of ovariectomized rats receives the indicated treatment during a period of time of six weeks (thus until Day 63).
The body weight of each tested animal is monitored twice a week.

vaginal epithelium [2] = test: Vaginal epithelium thickness evaluation in ovariectomized rats; format: in vivo, rat; settings: 6-week treatment
Text: as §1, §2, §3, §4
One part of the vagina tissue material is paraffin-embedded. Slices of the paraffin-embedded vaginal tissue are stained for studying and measuring the vaginal epithelium thickness as well as the vaginal epithelium morphology. […]

vaginal epithelium [3] = test: Vaginal Maturation Index: percentage of cornified cells in vaginal smears of ovariectomized rats; format: in vivo, rat; settings: calcitriol, irrespectively of the doses tested
Protocol: as §3, §4
(§5) Smears of vaginal tissue are collected from each of the tested animal by gentle scraping along the wall of the vagina the day before the first treatment and the day following the last treatment for determining the Vaginal Maturation Index (VMI).
(§6) For each rat, 2 samples are taken by gentle scraping along the wall of the vagina. […]
(§7) VMI is assessed as a ratio obtained through performing a random count of 3 major cell types. […]

vaginal epithelium [4] = test: Vaginal Maturation Index: percentage of leukocytes in vaginal smears of ovariectomized rats; format: in vivo, rat; settings: calcitriol alone at 0.006 μg
Protocol: as §3, §4, §5, §6, §7

[5] = Calcium plasma level in ovariectomized rats; format: in vivo, rat
Protocol: as §3, §4

vaginal epithelium [6] = settings: oral 0.500 mcg calcitriol/day, at least one year, vs non-supplemented postmenopausal women; cited from earlier work
vaginal epithelium [7] = test: Histology of the vaginal tissue cornified cell layer in ovariectomized rats (FIG. 3); format: in vivo, rat
Protocol: as §3, §4
One part of the vagina tissue material is paraffin-embedded. Slices of the paraffin-embedded vaginal tissue are stained for studying and measuring the vaginal epithelium thickness as well as the vaginal epithelium morphology.
Vaginal tissue is then separated into two parts: • one half is fixed in 10% neutral buffered formalin and paraffin-embedded for epithelium thickness evaluation and morphology (H&E coloration) • the second half will be immediately frozen and stored at −80° C. for further evaluation.
Vaginal tissue is embedded in paraffin, sectioned and stained with hematoxylin/eosine (2 slides/rat) using a fully automated multi-stainer system for histological analysis, the Multistainer ST5020 in conjunction with the CV5030 Coverslipper marketed by the Company Leica Biosystems (Germany).

[8] = tested on: vaginal maturation index and urogenital symptoms; settings: oral raloxifene 60 mg/day with 400 IU vitamin D and 600 mg calcium, 3 months, vs risedronate-based regimen; cited from earlier work
vaginal atrophy = settings: vaginal suppository 1000 IU, daily for 8 weeks, 44 postmenopausal women; cited from earlier work

calcium plasma level ([5]; calcitriol dose 0.006 μg): did not cause any significant change | calcium plasma level ([5]; dose of 0.08 μg): significantly increased | calcium plasma level ([5]; dose of 0.1 μg): significantly increased
Molecule: C=C1/C(=C\C=C2/CCC[C@]3(C)[C@@H]([C@H](C)CCCC(C)(C)O)CC[C@@H]23)C[C@@H](O)C[C@@H]1O [Calcitriol, 1α,25-dihydroxyvitamin D3]
body weight evolution [1]: did not cause any change | vaginal epithelium thickness as compared to placebo (vaginal epithelium [2]; calcitriol alone, irrespective of the dose tested): did not cause any change | content of the vaginal epithelium cornified cells (vaginal epithelium [3]): no significant change | vaginal epithelium content in leukocytes (vaginal epithelium [4]): no effect | calcium plasma level: significance versus placebo ([5]; Calcitriol 0.08 μg): **** (“****” means p<0.001 versus placebo) | calcium plasma level: significance versus placebo ([5]; Calcitriol 0.1 μg): **** (“****” means p<0.001 versus placebo) | squamous maturation of the vaginal epithelium (vaginal epithelium [6]): resulted in squamous maturation

Molecule: C[C@]12CC[C@@H]3c4ccc(O)cc4CC[C@H]3[C@@H]1CC[C@@H]2O [Estradiol, (17beta)-estra-1,3,5(10)-triene-3,17-diol]
body weight evolution [1]: did not cause any change | vaginal epithelium thickness as compared to placebo (vaginal epithelium [2]; 0.4 μg dose of estradiol): high increase | cornified cell layer in histological photograph (vaginal epithelium [7]; 0.02 μg dose of estradiol (FIG. 3B)): does not cause a detectable change | cornified cell layer in histological photograph (vaginal epithelium [7]; 0.08 μg estradiol (FIG. 3C)): thickness and a density which increase with the increasing doses | cornified cell layer in histological photograph (vaginal epithelium [7]; 0.4 μg estradiol (FIG. 3D)): thickness and a density which increase with the increasing doses

Molecule: O=C(c1ccc(OCCN2CCCCC2)cc1)c1c(-c2ccc(O)cc2)sc2cc(O)ccc12 [raloxifene]
vaginal maturation index [8]: improvement | vaginal pH [8]: improvement

Molecule: vitamin D
superficial cells in the vaginal epithelium (vaginal atrophy): significant increase | vaginal pH (vaginal atrophy): significant decrease

From US20190224213A1, “VAGINAL COMPOSITION COMPRISING A COMBINATION OF ESTROGEN AND VITAMIN D” (CHEMO RESEARCH S.L., priority 2016, published 2019)
